tested on: antibody of the present invention; experiment: Interference from other drugs, homogeneous enzyme immunoassay; type: binding, rabbit; settings: chemical at 10.0 μg/ml urine; cutoff 5.0 μg Atenolol per ml of urine; tested three times
Procedure: Samples were checked for turbidity and growth. A homogeneous enzyme immunoassay was carried out on an Olympus AU-5200 analyzer using the following assay parameters:
Reagent 1 is comprised of a titer of 1–500 dilution of an antibody of the present invention, 11.25 mM NAD+, 11.25 mM G6P, 0.1% w/v sodium azide and 100 mM Tris.
Reagent 2 is comprised of a titer of 1–2000 dilution of a G6PDH-beta blocker conjugate, 0.1% w/v sodium azide, and 50 mM Tris.
A homogenous calibrator containing sodium azide was used to calibrate the analyzer prior to each run.
The analytical cutoff for the test was set at 5.0 μg Atenolol per ml of urine. The result was scored as a positive if the signal strength was greater than that produced by 5.0 μg Atenolol per ml of urine.
Interference from other drugs was tested using fifty-five (55) frequently used chemicals and medicines, at concentrations of 10.0 μg/ml urine.
The samples were tested three times, following the procedures used in Example 3.

Compound | Beta-Blocker Pos./Neg.
CN(C)CCCN1c2ccccc2Sc2ccc(Cl)cc21 [Chlorpromazine] | Neg. (scored as a positive if the signal strength was greater than that produced by 5.0 μg Atenolol per ml of urine)
CC(C)Cc1ccc(C(C)C(=O)O)cc1 (stereo not drawn) [Ibuprofen] | Neg. (scored as a positive if the signal strength was greater than that produced by 5.0 μg Atenolol per ml of urine)
O=C(O)C1N=C(c2ccccc2)c2cc(Cl)ccc2NC1=O (stereo not drawn) [Clorazepate] | Neg. (scored as a positive if the signal strength was greater than that produced by 5.0 μg Atenolol per ml of urine)
CN1[C@H]2CC[C@@H]1[C@@H](C(=O)O)[C@@H](OC(=O)c1ccccc1)C2 [Benzoylecgonine] | Neg. (scored as a positive if the signal strength was greater than that produced by 5.0 μg Atenolol per ml of urine)
Cn1c(=O)c2[nH]cnc2n(C)c1=O [Theophylline] | Neg. (scored as a positive if the signal strength was greater than that produced by 5.0 μg Atenolol per ml of urine)
O=C(O)c1cc(O)ccc1O [Gentisic Acid] | Neg. (scored as a positive if the signal strength was greater than that produced by 5.0 μg Atenolol per ml of urine)
(−)-11-NOR-9-Carboxy-Delta9-THC | Neg. (scored as a positive if the signal strength was greater than that produced by 5.0 μg Atenolol per ml of urine)
Cn1c(=O)c2c(ncn2C)n(C)c1=O [Caffeine] | Neg. (scored as a positive if the signal strength was greater than that produced by 5.0 μg Atenolol per ml of urine)
C=CCN1CC[C@]23c4c5ccc(O)c4O[C@H]2[C@@H](O)C=C[C@H]3[C@H]1C5 [Nalorphine] | Neg. (scored as a positive if the signal strength was greater than that produced by 5.0 μg Atenolol per ml of urine)
CC(=O)Oc1ccccc1C(=O)O [Acetylsalicylic Acid] | Neg. (scored as a positive if the signal strength was greater than that produced by 5.0 μg Atenolol per ml of urine)
CC(C(=O)O)c1cccc(Oc2ccccc2)c1 (stereo not drawn) [Fenoprofen] | Neg. (scored as a positive if the signal strength was greater than that produced by 5.0 μg Atenolol per ml of urine)
Cc1ccc(C)c(OCCCC(C)(C)C(=O)O)c1 [Gemfibrozil] | Neg. (scored as a positive if the signal strength was greater than that produced by 5.0 μg Atenolol per ml of urine)
NCCc1ccccc1 [Phenethylamine (beta-)] | Neg. (scored as a positive if the signal strength was greater than that produced by 5.0 μg Atenolol per ml of urine)
CCC(=O)C(CC(C)N(C)C)(c1ccccc1)c1ccccc1 (racemic) [Methadone (DL-)] | Neg. (scored as a positive if the signal strength was greater than that produced by 5.0 μg Atenolol per ml of urine)
CN[C@@H](C)[C@H](O)c1ccccc1 [Ephedrine (L-)] | Neg. (scored as a positive if the signal strength was greater than that produced by 5.0 μg Atenolol per ml of urine)
COc1ccc2c(c1)[C@]13CCCC[C@@H]1[C@H](C2)N(C)CC3 [Dextromethorphan] | Neg. (scored as a positive if the signal strength was greater than that produced by 5.0 μg Atenolol per ml of urine)
COc1ccc2c3c1O[C@H]1[C@@H](O)C=C[C@H]4[C@@H](C2)N(C)CC[C@@]341 [Codeine] | Neg. (scored as a positive if the signal strength was greater than that produced by 5.0 μg Atenolol per ml of urine)
Ecgonine Hydrochloride | Neg. (scored as a positive if the signal strength was greater than that produced by 5.0 μg Atenolol per ml of urine)
O=C1CN=C(c2ccccc2Cl)c2cc([N+](=O)[O-])ccc2N1 [Clonazepam] | Neg. (scored as a positive if the signal strength was greater than that produced by 5.0 μg Atenolol per ml of urine)
Cc1nnc2n1-c1ccc(Cl)cc1C(c1ccccc1)=NC2 [Alprazolam] | Neg. (scored as a positive if the signal strength was greater than that produced by 5.0 μg Atenolol per ml of urine)
CCOC(=O)[C@@H]1C2CCC(C[C@@H]1OC(=O)c1ccccc1)N2C (stereo partly drawn) [Cocainethylene] | Neg. (scored as a positive if the signal strength was greater than that produced by 5.0 μg Atenolol per ml of urine)
CCN(CC)CCNC(=O)c1ccc(N)cc1 [Procainamide] | Neg. (scored as a positive if the signal strength was greater than that produced by 5.0 μg Atenolol per ml of urine)
CC(N)C(O)c1ccccc1 (stereo not drawn) [Phenylpropanolamine] | Neg. (scored as a positive if the signal strength was greater than that produced by 5.0 μg Atenolol per ml of urine)

Compound | Beta-Blocker Pos./Neg.
c1ccc(C2(N3CCCCC3)CCCCC2)cc1 [Phencyclidine] | Neg. (scored as a positive if the signal strength was greater than that produced by 5.0 μg Atenolol per ml of urine)
CN(C)CCCN1c2ccccc2CCc2ccccc21 [Imipramine] | Neg. (scored as a positive if the signal strength was greater than that produced by 5.0 μg Atenolol per ml of urine)
CCN(CC)CC(=O)Nc1c(C)cccc1C [Lidocaine] | Neg. (scored as a positive if the signal strength was greater than that produced by 5.0 μg Atenolol per ml of urine)
CN[C@@H](C)[C@H](O)c1ccccc1.Cl [Ephedrine Hydrochloride (1R,2S)-(−)] | Neg. (scored as a positive if the signal strength was greater than that produced by 5.0 μg Atenolol per ml of urine)
PCP | Neg. (scored as a positive if the signal strength was greater than that produced by 5.0 μg Atenolol per ml of urine)
C=C[C@H]1C[N@@]2CC[C@H]1C[C@@H]2[C@@H](O)c1ccnc2ccc(OC)cc12 [Quinidine] | Neg. (scored as a positive if the signal strength was greater than that produced by 5.0 μg Atenolol per ml of urine)
COC(=O)[C@@H]1[C@H]2CC[C@@H](C[C@@H]1O)N2C.Cl [Ecgonine Methyl Ester Hydrochloride] | Neg. (scored as a positive if the signal strength was greater than that produced by 5.0 μg Atenolol per ml of urine)
NC(=O)c1cccnc1 [Niacinamide] | Neg. (scored as a positive if the signal strength was greater than that produced by 5.0 μg Atenolol per ml of urine)
CCCC(C)C1(CC)C(=O)NC(=O)NC1=O (stereo not drawn) [Pentobarbital] | Neg. (scored as a positive if the signal strength was greater than that produced by 5.0 μg Atenolol per ml of urine)
CCN(CC)CCOC(=O)c1ccc(N)cc1 [Procaine] | Neg. (scored as a positive if the signal strength was greater than that produced by 5.0 μg Atenolol per ml of urine)
Penicillin | Neg. (scored as a positive if the signal strength was greater than that produced by 5.0 μg Atenolol per ml of urine)
CN1C(=O)CC[C@H]1c1cccnc1 [(−)-Cotinine] | Neg. (scored as a positive if the signal strength was greater than that produced by 5.0 μg Atenolol per ml of urine)
Cc1cc(CC(=O)O)n(C)c1C(=O)c1ccc(Cl)cc1 [Zomepirac] | Neg. (scored as a positive if the signal strength was greater than that produced by 5.0 μg Atenolol per ml of urine)
CN[C@@H](C)Cc1ccccc1 [Methamphetamine (D-)] | Neg. (scored as a positive if the signal strength was greater than that produced by 5.0 μg Atenolol per ml of urine)
C[C@H](N)Cc1ccccc1 [Amphetamine (D-)] | Neg. (scored as a positive if the signal strength was greater than that produced by 5.0 μg Atenolol per ml of urine)
CN1C(=O)C(O)N=C(c2ccccc2)c2cc(Cl)ccc21 (stereo not drawn) [Temazepam] | Neg. (scored as a positive if the signal strength was greater than that produced by 5.0 μg Atenolol per ml of urine)
CN[C@@H](C)[C@@H](O)c1ccccc1 [Pseudoephedrine] | Neg. (scored as a positive if the signal strength was greater than that produced by 5.0 μg Atenolol per ml of urine)
COc1ccc2cc([C@H](C)C(=O)O)ccc2c1 [Naproxen] | Neg. (scored as a positive if the signal strength was greater than that produced by 5.0 μg Atenolol per ml of urine)
COc1ccc2c3c1O[C@H]1C(=O)CC[C@H]4[C@@H](C2)N(C)CC[C@]314 [Hydrocodone] | Neg. (scored as a positive if the signal strength was greater than that produced by 5.0 μg Atenolol per ml of urine)
CNC[C@H](O)c1cccc(O)c1 [Phenylephrine] | Neg. (scored as a positive if the signal strength was greater than that produced by 5.0 μg Atenolol per ml of urine)
C=CCC1(CC(C)C)C(=O)NC(=O)NC1=O [Butalbital] | Neg. (scored as a positive if the signal strength was greater than that produced by 5.0 μg Atenolol per ml of urine)
CC1(C)S[C@@H]2[C@H](NC(=O)[C@H](N)c3ccccc3)C(=O)N2[C@H]1C(=O)O [Ampicillin] | Neg. (scored as a positive if the signal strength was greater than that produced by 5.0 μg Atenolol per ml of urine)
